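Five concentrations, 48 hours, 96-well plates. Here, GI50 denotes the concentration required for 50% inhibition of growth. At the TGI there is no net growth.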
Tests used:
Assay in all cases: growth of human tumour cells (NCI), 48 h
[1] = test system: ACHN renal
[2] = test system: U251 CNS
[3] = test system: OVCAR-8 ovarian
[4] = test system: SK-MEL-28 melanoma
[5] = test system: COLO 205 colon
[6] = test system: SN12C renal
[7] = test system: SNB-75 CNS
[8] = test system: NCI-H226 lung
[9] = test system: PC-3 prostate
[10] = test system: NCI/ADR-RES ovarian

| SMILES | TGI [1] [µM] | TGI [2] [µM] | TGI [3] [µM] | TGI [4] [µM] | TGI [5] [µM] | TGI [6] [µM] | TGI [7] [µM] | TGI [8] [µM] | TGI [9] [µM] | GI50 [1] [µM] | GI50 [2] [µM] | GI50 [3] [µM] | GI50 [4] [µM] | GI50 [5] [µM] | GI50 [6] [µM] | GI50 [7] [µM] | GI50 [8] [µM] | GI50 [9] [µM] | GI50 [10] [µM] | TGI [10] [µM] |
| --- | --- | --- | --- | --- | --- | --- | --- | --- | --- | --- | --- | --- | --- | --- | --- | --- | --- | --- | --- | --- |
| O=C(/C=C/c1ccccc1O)c1ccccc1O | > 100 | > 100 | > 100 | > 100 | > 100 | > 100 | > 100 | > 100 | – | – | – | – | – | – | – | – | – | – | – | – |
| CC(=O)c1cccc(NC(=O)C(=O)NNc2n[nH]c(=S)n2N)c1 | 19.7 | 12 | 24.1 | 18.5 | 27.9 | 20.3 | 25.2 | 20.1 | 23 | – | – | – | – | – | – | – | – | – | – | – |
| COc1cc(C(Cc2ccccc2)NC(C)=O)oc(=O)c1 (stereo unspecified) | > 100 | > 100 | > 100 | > 100 | > 100 | > 100 | > 100 | > 100 | – | – | – | – | – | – | – | – | – | – | – | – |
| CCC[CH2][Sn]1([CH2]CCC)[O]N=C(c2ccccc2)C(c2ccccc2)[O]1 (stereo unspecified) | 3.1 | 2.9 | 3.96 | 2.64 | 2.92 | 3.18 | 4.1 | 5.59 | – | 1.72 | 1.54 | 1.87 | 1.36 | 1.53 | 1.77 | 1.6 | 2.09 | – | – | – |
| CCCN=C(N)NC#N | > 100 | > 100 | > 100 | > 100 | 32.9 | > 100 | > 100 | > 100 | – | – | – | – | – | – | – | – | – | – | – | – |
| COc1cccc(/C=C/c2cc(OC)c(OC)c(OC)c2)c1 | > 100 | > 100 | > 100 | > 100 | > 100 | > 100 | 60.1 | > 100 | – | – | – | – | – | – | – | – | – | – | – | – |
| Cn1cc(CO)c2c1C(=O)C=C(N1CC1)C2=O | 0.0102 | 0.0726 | 3.58 | 0.605 | – | 0.027 | 0.0444 | – | 0.128 | < 0.01 | < 0.01 | < 0.01 | < 0.0166 | < 0.0187 | < 0.01 | < 0.01 | – | 0.0153 | 0.0291 | 0.275 |
| Cc1cc(CC(O)c2ccc(Cl)c(Cl)c2)nc(=O)[nH]1 (stereo unspecified) | > 100 | > 100 | > 100 | > 100 | 85.2 | > 100 | 48.8 | 92 | – | – | – | – | – | – | – | – | – | – | – | – |
| C=C1C(=O)OC2CCN3CC=C(COC(=O)C(C)(O)C4(CO4)C1C)C23 (stereo unspecified) | > 100 | > 100 | > 100 | > 100 | > 100 | > 100 | – | > 100 | > 100 | – | – | – | – | – | – | – | – | – | – | > 100 |
| CN1CCN(CCOc2ccc(-c3cnc4c(-c5ccccc5F)cnn4c3)cc2)CC1 | 2.96 | – | 10.6 | 3.07 | – | 3.6 | 2.66 | – | – | 1.61 | – | 2.92 | 1.7 | – | 1.78 | 1.35 | – | – | 2.4 | 6.42 |
| O=S1(=O)C[C@H](O)[C@H](O)CS1 | > 100 | > 100 | > 100 | > 100 | > 100 | > 100 | > 100 | > 100 | – | – | – | – | – | – | – | – | – | – | – | – |
| NNC(=S)N/N=C(\CC1OC(=O)c2ccccc21)c1ccccc1O (stereo unspecified) | > 100 | 56.2 | > 100 | > 100 | > 100 | > 100 | 86.1 | 95.4 | – | – | – | – | – | – | – | – | – | – | – | – |
| CN(C)N=Nc1ccc(NC=O)cc1 | > 100 | > 100 | > 100 | > 100 | > 100 | > 100 | > 100 | – | > 100 | – | – | – | – | – | – | – | – | – | – | > 100 |
| COC(=O)C1=C(O)c2cc(OC)c(OC)cc2C(c2ccc(OC)c(OC)c2)C1 (stereo unspecified) | > 100 | > 100 | > 100 | > 100 | > 100 | > 100 | > 100 | > 100 | – | – | – | – | – | – | – | – | – | – | – | – |
| C=C(CNCc1ccccc1)c1ccc(C(=O)Nc2ccccc2N)cc1 | 84.3 | > 100 | > 100 | > 100 | 38.5 | 14.8 | 93 | – | > 100 | 9.79 | 9.86 | 2.17 | 11.7 | 4.9 | 0.583 | 38.2 | – | 18.5 | 3.21 | 18.8 |
| COC1(OC)CC2C(=O)N(Cc3ccccc3)C1C(S(=O)(=O)c1ccccc1)C2S(=O)(=O)c1ccccc1 (stereo unspecified) | 22.4 | 27.2 | 23.4 | 26.8 | 16.9 | 25.4 | 27.6 | 35.2 | – | – | – | – | – | – | – | – | – | – | – | – |
| O=C(O)CCC(=O)c1ccc[nH]1 | > 100 | > 100 | > 100 | – | > 100 | > 100 | > 100 | > 100 | > 100 | – | – | – | – | – | – | – | – | – | – | > 100 |
| CCCCC(C(=O)C(=O)NC1C2CC3CC(C2)CC1C3)C(=O)C(C)C (stereo unspecified) | > 100 | > 100 | > 100 | > 100 | > 100 | > 100 | > 100 | > 100 | – | – | – | – | – | – | – | – | – | – | – | – |
| Cc1nn(-c2ccccc2)c2nc(N3CCOCC3)nnc12 | > 100 | > 100 | > 100 | > 100 | > 100 | > 100 | > 100 | – | – | – | – | – | – | – | – | – | – | – | – | – |
| CN(C)c1nc2ccccc2[nH]1 | > 100 | > 100 | > 100 | > 100 | > 100 | > 100 | > 100 | – | – | – | – | – | – | – | – | – | – | – | – | – |
| CCCCCCNC(=O)c1cc(NCc2cc(O)ccc2O)ccc1O | 15.7 | 28.5 | 36.2 | 25.4 | 28.6 | 17.4 | 21.1 | – | 12 | 4.02 | 12.1 | 4.83 | 12.3 | 10.8 | 4.75 | 4.63 | – | 2.47 | 5.44 | 78.1 |
